Laboratory results reported in publication PMC2723765 (Bioorganic & medicinal chemistry, 2009).
Where two headings read alike, the source gives them in different places. Values belong to the molecule of their own block, whether it stands above or below them.

Columns and labels:
CXCR4 [1] = target: CXCR4 (Homo sapiens, UniProt P61073); assay: Transwell migration assay of Jurkat cells towards SDF-1; format: cell-based; settings: SDF-1 in lower wells
[2] = cited from earlier work
CXCR4 [3] = target: CXCR4 (Mus musculus, UniProt P70658); settings: read-out: IC50 of ^64Cu-4 binding to mouse splenocytes; constant amount of ^64Cu-4 and increasing concentrations of non-radioactive 4, 1 h; average of three experiments
PET studies = format: in vivo, C57BL/6 mice; settings: co-injection with excess (50 μg) non-radioactive 4

CXCR4 (Mus musculus, UniProt P70658), sequence (P70658 whole entry): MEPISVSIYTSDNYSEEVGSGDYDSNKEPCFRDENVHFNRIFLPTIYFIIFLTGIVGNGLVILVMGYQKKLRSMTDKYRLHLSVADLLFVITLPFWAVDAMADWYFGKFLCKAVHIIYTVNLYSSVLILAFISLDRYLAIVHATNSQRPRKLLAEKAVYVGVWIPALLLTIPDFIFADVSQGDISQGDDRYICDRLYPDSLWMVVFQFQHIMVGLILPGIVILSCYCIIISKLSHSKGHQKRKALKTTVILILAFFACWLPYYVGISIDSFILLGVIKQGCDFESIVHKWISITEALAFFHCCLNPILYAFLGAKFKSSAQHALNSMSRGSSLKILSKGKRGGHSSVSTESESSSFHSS
CXCR4 (Homo sapiens, UniProt P61073), sequence (P61073 whole entry): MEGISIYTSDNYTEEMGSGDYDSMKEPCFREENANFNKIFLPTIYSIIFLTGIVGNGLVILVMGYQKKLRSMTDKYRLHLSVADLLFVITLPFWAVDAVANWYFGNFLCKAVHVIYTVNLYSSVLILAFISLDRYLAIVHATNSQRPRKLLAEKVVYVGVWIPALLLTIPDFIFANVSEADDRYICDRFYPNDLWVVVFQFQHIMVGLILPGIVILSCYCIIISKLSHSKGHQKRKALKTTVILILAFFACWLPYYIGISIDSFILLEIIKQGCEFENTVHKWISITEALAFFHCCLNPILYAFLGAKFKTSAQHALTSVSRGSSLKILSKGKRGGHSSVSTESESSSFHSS

- Lowest concentration that induces maximal migration of Jurkat cells (CXCR4 [1]): 100 ng/mL
Molecule: SDF-1: chemokine stromal cell-derived factor-1, native ligand for CXCR4

Molecule: ^99Tc- SDF-1: SDF-1 labeled with ^99Tc, imaging agent for myocardial infarction
- Accumulation in infarcted myocardium [2]: 0.6 % ID/g
- Accumulation in normal myocardium [2]: 0.1 % ID/g

- IC50 (CXCR4 [3]): 46.9 µM
- PET: uptake in spleen and liver after blocking (PET studies): undetectable levels
- Uptake in BM (1 h post i.v. injection): 14 % ID/g
- Uptake in LN (1 h post i.v. injection): 10 % ID/g
- Uptake in blood (1 h post i.v. injection): 1.7 % ID/g
- Uptake in kidneys (1 h post i.v. injection): 10 % ID/g
- Uptake in liver (1 h post i.v. injection): 41 % ID/g
- Uptake in muscle (1 h post i.v. injection): 0.3 % ID/g
- Uptake in spleen (1 h post i.v. injection): 13 % ID/g
- Accumulation in blood (2 h post injection): < 1 % ID/g
- Accumulation in liver (2 h post injection): 49 % ID/g
- Change of accumulation in spleen, LN, liver and BM (6 h post injection): slight increase
- Change of accumulation in kidneys (co-injection of excess (50 μg) non-labeled 4): corresponding increase in accumulation
- Reduction of accumulation in liver (co-injection of excess (50 μg) non-labeled 4, 2 h): 79%
- Reduction of accumulation in liver (co-injection of excess (50 μg) non-labeled 4, 6 h): 74%
- Reduction of accumulation in all immune related organs (co-injection of excess (50 μg) non-labeled 4, versus accumulation after 2 or 6 h): 60–80%
Molecule: CC(=O)[O-].CC(=O)[O-].[64Cu+2].c1cc(CN2CCCNCCNCCCNCC2)ccc1CN1CCCNCCNCCCNCC1 [^64Cu-4, [^64Cu]-1′-{1,4-phenylenebis(methylene)}-bis{1,4,8,11-tetraaza-cyclotetradecane}copper acetate]
